According to patent publication US20060057669A1, “Inactive transcription factor tif-ia and uses thereof” (priority 2002, published 2006):

Tests used:
Pol I transcription [1] = assay: In vitro transcription: TIF-IA mutants added to nuclear extract from exponentially growing FM3A cells; assay type: biochemical, murine; details: 20 and 40 ng added to 15 ug nuclear extract
Experimental: 20 and 40 ng of the indicated TIF-IA mutants were added to 15 ug nuclear extract from exponentially growing FM3A cells and rDNA transcription was assayed.
(§1) Nuclear extracts were prepared from exponentially growing (8×10^5 cells/ml), density-arrested or PD98059-treated (CN Bioscience, Bad Soden, Germany) 40 μM, 0.5 hr) or rapamycin-treated FM3A cells (ATCC, Manassas, USA). 25 μl assays contained 50 ng of template DNA (pMr600/EcoRI), 30 μg nuclear extract proteins and 12 mM Hepes-KOH, [pH8.0], 0.1 mM EDTA, 5 mM MgCl2, 80 mM KCl, 10 mM creatine phosphate, 12% (v/v) glycerol, 0.66 mM each of ATP, GTP and CTP, 0.01 mM UTP and 0.5 μCi [α-^32P]UTP (5000 Ci/mmol). After incubation for 60 min at 30° C., RNA was extracted and analyzed on non-denaturing 5% polyacrylamide gels
Given that phosphorylation of TIF-IA at serine 649 is essential for transcription, excess of TIF-IAS649A should impair Pol I transcription. To test this, we examined the effect of exogenous wild-type and mutant TIF-IA on transcriptional activity of extracts from exponentially growing cells.

Pol I transcription [2] = assay: In vitro transcription: TIF-IA mutants restoring rDNA transcription of nuclear extract from density-arrested FM3A cells; assay type: biochemical, murine
Experimental: (A) Transcriptional activity of TIF-IA mutants in vitro. FLAG-tagged wild-type TIF-IA and the indicated single or double point mutants were overexpressed in HEK293T cells, immunopurified, and 20 and 40 ng were assayed for their capability to restore rDNA transcriptional activity of nuclear extract from density-arrested FM3A cells. The amount and purity of TIF-IA were estimated on silver-stained SDS-polyacrylamide gels and Western blots (data not shown).
(A) Transcriptional activity of TIF-IAS199A and TIF-IAS199D in vitro. FLAG-tagged wild-type TIF-IA and the indicated mutants were immunopurified from HEK293T cells, and 30 and 60 ng were assayed for their capability to restore transcriptional activity of nuclear extract from density-arrested FM3A cells. The amount and purity of TIF-IA were estimated on silver-stained SDS-polyacrylamide gels (data not shown).
(B) Transcriptional activity of TIF-IAS44A in vitro. FLAG-tagged wild-type TIF-IA and the indicated mutant were assayed for their transcriptional activity in vitro.
as §1
TIF-IA was immunopurified from untransfected NIH3T3 cells or from HEK293T cells overexpressing FLAG-tagged TIF-IA. 4×10^6 cells were lysed in 0.8 ml IP buffer (20 mM Tris-HCl [pH 7.4], 200 mM NaCl, 2 mM EDTA, 2 mM EGTA, 1% Triton X-100, 0.5 mM PMSF, 1 μg/ml aprotinin, 5 μg/ml leupeptin and 1 μg/ml pepstatin A), centrifuged at 10,000 g for 30 min, and the supernatants were incubated for 4 hr at 4° C. with either 10 μg anti-TIF-IA antibodies bound to 20 μl protein G-agarose or with anti-FLAG (M2) agarose (Sigma-Aldrich Corp., Missouri, USA). The immunocomplexes were successively washed with buffer AM (20 mM Tris-HCl [pH 8.0], 5 mM MgCl2, 0.1 mM EDTA, 20% glycerol) containing 400 and 100 mM KCl, respectively. The amount and purity of TIF-IA was estimated on silver-stained polyacrylamide gels and similar amounts of bead-bound TIF-IA were used in in vitro transcription assays. GST fusion proteins were expressed in E. coli BL21(DE3) and purified on Glutathione-Sepharose 4B according to the manufacturer's instructions.
To assess the functional relevance of S633 and S649 phosphorylation on transcriptional activity, the respective S→A and S→D single or double point mutants were purified from transfected cells and assayed for their capability to rescue transcription of extracts from density-arrested cells. […] Thus, phosphorylation of TIF-IA at S649 and S633 is required for transcriptional activity.
Phosphorylation of peptide a should inhibit TIF-IA activity, while phosphorylation of peptide b, e.g. S44, should augment TIF-IA activity.

Pol I = assay: Co-immunoprecipitation of Pol I with TIF-IA mutants from HEK293T cells; assay type: binding, human
Experimental: (§2) (B) A mutant that mimics phosphorylation of TIF-IA at S199 fails to interact with Pol I and TIF-IB. FLAG-tagged wild-type TIF-IA or the indicated point mutants were overexpressed in HEK293T cells and immunoprecipitated from cell lysates with anti-FLAG antibodies (M2 agarose). Co-precipitated Pol I and TIF-IB/SL1 were visualized on Western blots with anti-RPA116 and anti-TAFI110 antibodies.
(§3) Immunoprecipitations were carried out from human cells overexpressing FLAG-tagged TIF-IA. Cells were lysed in IP buffer, cleared by centrifugation at 10,000×g for 30 min, and the supernatants were incubated for 4 hr at 4° C. with anti-FLAG (M2) agarose (Sigma). To analyze the interaction of TIF-IA with TIF-IB/SL1, the immunoprecipitates were washed with IP buffer and TIF-IB/SL1 was visualized on immunoblots with α-TAFI110 antibodies. To monitor the interaction of TIF-IA with Pol I, the immunoprecipitates were washed with IP buffer containing 600 mM NaCl and Pol I was analyzed on Western blots using antibodies against the second largest subunit of Pol I (RPA116) or PAF67 (Seither et al., J. Biol. Chem. 382 (2001), 1163-1170).
(§4) Given the importance of mTOR-mediated alterations in the phosphorylation pattern on TIF-IA activity, one could predict that either phosphorylation of S199, dephosphorylation of S44 or both regulate the interaction of TIF-IA with the Pol I transcription apparatus. It was therefore examined whether the S→A or S→D point mutant(s) were capable of interacting with Pol I and/or TIF-IB/SL1. For this, TIF-IA was precipitated from cells overexpressing either FLAG-tagged wild-type TIF-IA or the respective S199 and S44 mutant(s), and co-precipitated Pol I and TIF-IB/SL1 were visualized on Western blots.

TIF-IB/SL1 = assay: Co-immunoprecipitation of TIF-IB/SL1 with TIF-IA mutants from HEK293T cells; assay type: binding, human
Experimental: as §2, §3, §4

HEK293T cells = assay: Quantitative fluorimetric viability assay with calcein-AM; assay type: cell-based; details: 24, 36, 48 and 60 hr after transfection; 2 μM calcein-AM
Experimental: (B) Quantitative fluorimetric viability assay with calcein-AM. HEK293T cells were transfected with TIF-IA or the indicated point mutants. […] Viable cells were measured 24, 36, 48 and 60 hr after transfection by incubation with […] calcein-AM. The gradual increase in fluorescence intensity was recorded with a fluorescence multi-well plate reader for 20 min with an excitation wavelength of 485 nm and an emission wavelength of 530 nm. The proliferation rate of mock-transfected cells and cells overexpressing TIF-IA is shown at the left. Plots show the accumulation of calcein fluorescence (arbitrary units) against time. Growth rates calculated from linear regression curves are shown at the right. Values are presented as the mean±SD from three independent experiments performed in duplicates.
Conversion of calcein-AM (calcein acetoxymethyl ester, (CN Bioscience GmbH, Bad Soden, Germany) to calcein was used to measure cell proliferation. 12 hr after transfection, HEK293T cells were seeded to 96-well micro-plates at 1×10^4 cells/well. After 24, 36, 48 and 60 hr, cells were washed with PBS, incubated with 2 μM calcein-AM, and the gradual increase in fluorescence intensity within the cells was recorded by a fluorescence multi-well plate reader (CytoFluor Series 4000/TC, PerSeptive Biosystems, (Applied Biosystems, Forster City, USA) for 20 min in 1 min intervals. Excitation wavelength used for measurements of fluorescence was 485 nm with a bandwidth of 20 nm; emission wavelength was 530 nm with a bandwidth of 25 nm. Under the experimental conditions used, there is a direct correlation between the accumulation ratio of intracellular calcein fluorescence and the number of viable cells. The data from three independent experiments were analyzed by Sigmaplot and expressed as the mean±standard deviation. For statistical analysis, student's t test was used. Differences with a P<0.01 were considered statistically significant.
Given the functional significance of ERK/RSK-directed TIF-IA phosphorylation on Pol I transcription, mutations that enhance or abrogate TIF-IA activity may have a positive or negative effect on cell growth. To test this, HEK293T cells were transfected with cDNAs encoding wild-type or mutant TIF-IA which harbor single or double point mutations at S649 and S633. The expression of TIF-IA was estimated on Western blots and the cellular growth rate was measured by calcein-AM staining. Calcein-AM is a non-fluorescent, hydrophobic compound that is rapidly hydrolyzed by intracellular esterases releasing hydrophilic fluorescent calcein. Thus, cellular calcein fluorescence correlates with the amount of viable cells. […] Cells expressing FLAG-tagged wild-type or mutant TIF-IA were stained with FITC-conjugated anti-FLAG antibodies, identified by FACS and cell numbers were calculated by measuring the ratio of stained cells versus an internal standard. […] Conversely, the number of cells expressing TIF-IAS649A was 33% lower than the control. […] Taken together, the results reveal a striking correlation between phosphorylation of TIF-IA at serine 649, cellular rRNA synthetic activity and cell cycle progression.

[3] = S633/S649 mutants, 20 and 40 ng
[4] = S199 and S44 mutants, 30 and 60 ng

| Substance | effect on transcriptional activity of extracts from exponentially growing cells (Pol I transcription [1]) | capability to rescue transcription of extracts from density-arrested cells (Pol I transcription [2]; [3]) | capability to rescue transcription of extracts from density-arrested cells (Pol I transcription [2]; [4]) | interaction with Pol I (co-precipitated RPA116) (Pol I) | interaction with TIF-IB/SL1 (co-precipitated TAFI110) (TIF-IB/SL1) | cellular growth rate by calcein-AM staining (HEK293T cells) |
| --- | --- | --- | --- | --- | --- | --- |
| TIF-IAS633A: TIF-IA point mutant, serine 633 replaced by alanine | suppressed transcription well below the basal level | abolished TIF-IA activity | – | – | – | – |
| S633D: TIF-IA point mutant, serine 633 replaced by aspartic acid | – | less active than wild-type TIF-IA | – | – | – | – |
| TIF-IAS199A: the mutant in which S199 was changed to alanine | – | – | activated Pol I transcription like wild-type TIF-IA | interacted with both Pol I and TIF-IB/SL1 | interacted with both Pol I and TIF-IB/SL1 | – |
| TIF-IAS633AS649A: TIF-IA double mutant, serines 633 and 649 replaced by alanine | – | abolished TIF-IA activity | – | – | – | impaired cell growth |
| TIF-IAS199D: TIF-IA mutant, replacement of S199 by aspartic acid | – | – | abolished TIF-IA activity | no association of either Pol I or TIF-IB/SL1 could be detected | no association of either Pol I or TIF-IB/SL1 could be detected | – |
| TIF-IAS633DS649D: TIF-IA double mutant, serines 633 and 649 replaced by aspartic acid | – | TIF-IA activity was increased | – | – | – | accelerated cell growth |
